According to ChEMBL document CHEMBL4321836, “Discovery of BAY-298 and BAY-899: Tetrahydro-1,6-naphthyridine-Based, Potent, and Selective Antagonists of the Luteinizing Hormone Receptor Which Reduce Sex Hormone Levels in Vivo” (J Med Chem, 2019):
The source made the active and inactive calls. The calls are words filed in the database; no cut-off is given here.

Key:
[1] = target: T1, Lutropin-choriogonadotropic hormone receptor (Homo sapiens, UniProt P22888); experiment: Antagonist activity at human luteinizing hormone receptor assessed as reduction in agonist-induced cAMP production preincubated for 20 mins followed by agonist solution addition after 60 mins by cell based TR-FRET assay; type: functional
[2] = Maximum oral bioavailability in human liver microsomes based well stirred liver model at 1 uM measured after 2 to 60 mins in presence of glucose-6-phosphate by LC-MS/MS analysis; type: ADME, Microsome; settings: read-out: Fmax
[3] = Lipophilicity, logD of the compound at pH 7.5 by reversed-phase HPLC; type: physicochemical; settings: buffer
[4] = Clearance in human liver microsomes at 1 uM measured after 2 to 60 mins in presence of glucose-6-phosphate by LC-MS/MS analysis; type: ADME, Microsome
[5] = target: Lutropin-choriogonadotropic hormone receptor (Rattus norvegicus, UniProt P16235); experiment: Antagonist activity at rat luteinizing hormone receptor expressed in rat ovary granulosa GLHR15 cell suspension assessed as reduction in agonist-induced cAMP production preincubated for 30 mins followed by agonist solution addition after 30 mins by cell based TR-FRET assay; type: functional
[6] = target: T1, Lutropin-choriogonadotropic hormone receptor; experiment: Agonist activity at human luteinizing hormone receptor incubated for 60 mins by cell based TR-FRET assay; settings: human, 1 h
[7] = target: Lutropin-choriogonadotropic hormone receptor (Mus musculus, UniProt P30730); experiment: Antagonist activity at luteinizing hormone receptor in mouse MLTC-1 cells assessed as reduction in agonist-induced cAMP production preincubated for 30 mins followed by agonist solution addition and measured after 30 mins by cell based TR-FRET assay; type: functional
Thyrotropin receptor = Thyrotropin receptor (Homo sapiens, UniProt P16473); experiment: Antagonist activity at human thyroid stimulating hormone receptor expressed in rat HTC133 cells assessed as reduction in agonist-induced cAMP production preincubated for 20 mins followed by agonist solution addition and measured after 60 mins by cell based TR-FRET assay; type: functional
[8] = target: Relaxin receptor 1 (Homo sapiens) (UniProt Q9HBX9); experiment: Antagonist activity at human RXFP1 assessed as reduction in agonist-induced cAMP production preincubated for 20 mins followed by mutRelaxin agonist addition measured after 60 mins by cell based TR-FRET assay; type: functional
[9] = target: T2, Follicle-stimulating hormone receptor (Homo sapiens, UniProt P23945); experiment: Antagonist activity at human follicle stimulating hormone receptor assessed as reduction in agonist-induced cAMP production preincubated for 20 mins followed by agonist solution addition and measured after 120 mins by cell based TR-FRET assay; type: functional
T2 sequence (P23945 whole entry): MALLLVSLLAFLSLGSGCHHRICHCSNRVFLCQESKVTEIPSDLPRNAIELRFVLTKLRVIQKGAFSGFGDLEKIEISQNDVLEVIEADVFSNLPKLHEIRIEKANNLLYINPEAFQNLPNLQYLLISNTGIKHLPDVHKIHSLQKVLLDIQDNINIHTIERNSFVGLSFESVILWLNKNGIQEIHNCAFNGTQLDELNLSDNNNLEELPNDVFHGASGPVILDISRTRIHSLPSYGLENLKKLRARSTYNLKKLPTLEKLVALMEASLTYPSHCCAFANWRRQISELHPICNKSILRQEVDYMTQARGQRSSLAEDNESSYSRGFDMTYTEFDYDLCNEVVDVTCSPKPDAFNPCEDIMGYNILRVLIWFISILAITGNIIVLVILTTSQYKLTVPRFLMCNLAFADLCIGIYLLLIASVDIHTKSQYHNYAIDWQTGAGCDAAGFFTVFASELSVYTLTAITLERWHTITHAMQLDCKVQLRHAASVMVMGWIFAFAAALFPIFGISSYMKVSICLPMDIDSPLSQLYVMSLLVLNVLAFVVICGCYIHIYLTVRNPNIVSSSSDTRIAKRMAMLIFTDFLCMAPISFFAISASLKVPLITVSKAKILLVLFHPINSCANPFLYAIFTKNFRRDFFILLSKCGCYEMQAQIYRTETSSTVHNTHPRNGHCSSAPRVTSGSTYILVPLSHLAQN

Lutropin-choriogonadotropic hormone receptor (Mus musculus, UniProt P30730), sequence (P30730 whole entry): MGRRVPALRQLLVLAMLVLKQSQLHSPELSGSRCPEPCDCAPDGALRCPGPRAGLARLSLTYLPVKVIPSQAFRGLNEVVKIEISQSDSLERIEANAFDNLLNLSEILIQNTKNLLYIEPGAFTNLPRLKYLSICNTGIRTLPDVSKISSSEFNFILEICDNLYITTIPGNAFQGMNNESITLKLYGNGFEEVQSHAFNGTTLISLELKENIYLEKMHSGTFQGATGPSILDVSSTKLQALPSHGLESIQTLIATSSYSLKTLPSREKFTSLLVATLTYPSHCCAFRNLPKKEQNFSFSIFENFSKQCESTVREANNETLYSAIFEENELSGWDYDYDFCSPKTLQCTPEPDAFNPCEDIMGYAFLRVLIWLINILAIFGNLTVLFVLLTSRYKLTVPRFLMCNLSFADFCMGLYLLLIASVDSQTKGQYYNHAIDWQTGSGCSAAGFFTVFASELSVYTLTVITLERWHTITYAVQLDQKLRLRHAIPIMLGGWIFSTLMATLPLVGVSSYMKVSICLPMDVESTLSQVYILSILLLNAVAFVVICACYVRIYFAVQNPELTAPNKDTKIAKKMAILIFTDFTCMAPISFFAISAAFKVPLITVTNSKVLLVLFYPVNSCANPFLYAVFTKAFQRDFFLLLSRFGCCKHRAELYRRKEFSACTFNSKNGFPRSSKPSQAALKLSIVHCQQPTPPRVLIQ
Lutropin-choriogonadotropic hormone receptor (Rattus norvegicus, UniProt P16235), sequence (P16235 whole entry): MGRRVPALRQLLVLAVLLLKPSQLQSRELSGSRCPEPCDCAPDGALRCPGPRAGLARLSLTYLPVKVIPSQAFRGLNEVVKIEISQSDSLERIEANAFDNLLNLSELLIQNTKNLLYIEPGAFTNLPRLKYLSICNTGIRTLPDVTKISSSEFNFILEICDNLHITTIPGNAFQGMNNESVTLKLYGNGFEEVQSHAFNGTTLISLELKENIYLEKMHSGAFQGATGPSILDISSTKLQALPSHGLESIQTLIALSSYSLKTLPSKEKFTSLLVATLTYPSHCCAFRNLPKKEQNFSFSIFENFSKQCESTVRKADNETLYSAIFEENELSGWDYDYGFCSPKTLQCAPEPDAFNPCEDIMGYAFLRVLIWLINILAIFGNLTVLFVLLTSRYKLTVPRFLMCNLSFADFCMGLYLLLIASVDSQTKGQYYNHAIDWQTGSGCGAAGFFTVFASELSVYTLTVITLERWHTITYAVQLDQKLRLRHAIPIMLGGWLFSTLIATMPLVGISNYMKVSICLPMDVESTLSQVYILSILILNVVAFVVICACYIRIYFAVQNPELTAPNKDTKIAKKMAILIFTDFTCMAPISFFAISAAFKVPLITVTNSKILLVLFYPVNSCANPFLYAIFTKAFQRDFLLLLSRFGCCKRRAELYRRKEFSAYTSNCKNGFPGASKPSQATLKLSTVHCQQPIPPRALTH
T1 sequence (P22888 whole entry): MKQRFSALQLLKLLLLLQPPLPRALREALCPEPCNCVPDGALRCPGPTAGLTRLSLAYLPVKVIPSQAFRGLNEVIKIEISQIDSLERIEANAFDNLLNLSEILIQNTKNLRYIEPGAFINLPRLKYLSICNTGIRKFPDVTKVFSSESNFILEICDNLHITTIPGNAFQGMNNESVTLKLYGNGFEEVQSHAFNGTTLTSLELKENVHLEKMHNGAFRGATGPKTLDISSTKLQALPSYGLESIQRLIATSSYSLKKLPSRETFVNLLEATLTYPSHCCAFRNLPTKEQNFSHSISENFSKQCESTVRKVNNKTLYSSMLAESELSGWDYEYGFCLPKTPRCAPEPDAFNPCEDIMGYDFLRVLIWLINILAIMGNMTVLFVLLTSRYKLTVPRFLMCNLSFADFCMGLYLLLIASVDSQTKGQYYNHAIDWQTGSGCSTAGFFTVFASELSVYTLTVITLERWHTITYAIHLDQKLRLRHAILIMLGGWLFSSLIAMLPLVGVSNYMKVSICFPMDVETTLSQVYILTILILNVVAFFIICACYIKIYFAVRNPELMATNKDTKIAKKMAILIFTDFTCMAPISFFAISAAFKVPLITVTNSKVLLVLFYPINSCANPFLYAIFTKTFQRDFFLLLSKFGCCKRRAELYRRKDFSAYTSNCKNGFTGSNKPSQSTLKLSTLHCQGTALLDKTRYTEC
Thyrotropin receptor, sequence (P16473 whole entry): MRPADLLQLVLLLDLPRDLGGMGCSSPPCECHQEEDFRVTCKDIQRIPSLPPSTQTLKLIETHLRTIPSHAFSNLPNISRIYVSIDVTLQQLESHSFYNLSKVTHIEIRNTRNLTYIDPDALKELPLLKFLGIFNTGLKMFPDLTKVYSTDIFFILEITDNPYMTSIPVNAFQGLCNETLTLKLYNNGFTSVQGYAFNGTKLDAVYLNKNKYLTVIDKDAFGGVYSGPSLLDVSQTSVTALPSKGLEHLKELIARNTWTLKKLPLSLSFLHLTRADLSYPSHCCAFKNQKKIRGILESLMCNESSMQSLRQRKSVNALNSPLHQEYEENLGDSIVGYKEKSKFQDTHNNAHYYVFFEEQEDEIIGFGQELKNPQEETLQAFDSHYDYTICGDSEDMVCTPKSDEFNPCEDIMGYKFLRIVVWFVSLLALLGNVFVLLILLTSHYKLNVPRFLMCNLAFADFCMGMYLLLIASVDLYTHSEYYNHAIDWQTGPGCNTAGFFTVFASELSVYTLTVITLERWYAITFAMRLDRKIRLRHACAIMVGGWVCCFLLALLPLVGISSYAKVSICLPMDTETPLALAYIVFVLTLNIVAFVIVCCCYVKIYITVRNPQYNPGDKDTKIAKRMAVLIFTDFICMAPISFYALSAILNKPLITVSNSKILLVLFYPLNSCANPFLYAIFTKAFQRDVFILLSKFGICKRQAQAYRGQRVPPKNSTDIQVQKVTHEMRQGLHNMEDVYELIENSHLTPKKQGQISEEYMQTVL
Relaxin receptor 1 (Homo sapiens), sequence (Q9HBX9 whole entry): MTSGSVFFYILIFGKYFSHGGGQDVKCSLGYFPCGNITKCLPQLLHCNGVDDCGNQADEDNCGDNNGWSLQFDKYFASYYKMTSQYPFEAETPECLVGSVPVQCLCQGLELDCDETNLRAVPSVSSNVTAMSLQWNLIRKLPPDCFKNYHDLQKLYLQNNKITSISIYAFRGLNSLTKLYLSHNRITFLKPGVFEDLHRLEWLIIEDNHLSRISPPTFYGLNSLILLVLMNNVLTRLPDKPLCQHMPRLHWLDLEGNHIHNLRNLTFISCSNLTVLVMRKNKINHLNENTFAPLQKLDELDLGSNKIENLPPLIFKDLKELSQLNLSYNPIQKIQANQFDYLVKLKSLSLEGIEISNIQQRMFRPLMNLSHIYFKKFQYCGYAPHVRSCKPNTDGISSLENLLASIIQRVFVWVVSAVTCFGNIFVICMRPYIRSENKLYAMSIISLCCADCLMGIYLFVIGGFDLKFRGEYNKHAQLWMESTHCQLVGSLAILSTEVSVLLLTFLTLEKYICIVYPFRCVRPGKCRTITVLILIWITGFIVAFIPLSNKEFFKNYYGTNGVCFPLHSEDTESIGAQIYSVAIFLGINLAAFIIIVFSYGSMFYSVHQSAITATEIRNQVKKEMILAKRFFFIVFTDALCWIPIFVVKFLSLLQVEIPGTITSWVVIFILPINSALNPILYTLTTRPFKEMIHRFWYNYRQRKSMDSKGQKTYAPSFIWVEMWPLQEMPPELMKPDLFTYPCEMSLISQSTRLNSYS

IC50 [1] [µM]	Fh at 1 µM [2] [%]	chromatographic logD [3]	CLhep predicted at 1 µM [4] [mL/min/kg]	Structure (SMILES)	also measured
0.127	56	5.3	10	O=C(Nc1ccc(Oc2ccc(F)cc2)cc1)N1CCc2sccc2C1c1ccc(Cl)cc1 (racemic)	
> 16.5		3.7		NC(=O)c1ccc(C2c3ccsc3CCN2C(=O)Nc2cc(Cl)cc(Cl)c2)cc1 (racemic)	
0.174		5.1		O=C(Nc1ccc(F)c(Cl)c1)N1CCc2sccc2C1c1ccc(Cl)cc1 (racemic)	
> 16.5		3.1		COc1ccc(C2c3ccsc3CCN2C(=O)Nc2ccc(F)c(N3CCS(=O)(=O)CC3)c2)cc1 (racemic)	
> 16.5				CC(C)c1ccc(C2c3ccsc3CCN2C(=O)Nc2cc(Cl)cc(Cl)c2)cc1 (racemic)	
3.13		5.1		O=C(Nc1cc(Cl)cc(Cl)c1)N1CCc2sccc2C1c1cccc(F)c1 (racemic)	
> 16		4.8		COc1ccc(C2c3ccsc3CCN2C(=O)Cc2cc(C)cc(C)c2)cc1 (racemic)	
0.58		4.1		COc1ccc(C2c3ccsc3CCN2C(=O)Nc2cc(C)cc(C)c2)cc1 (racemic)	
1.68		2.8		COc1ccc(C2c3ccsc3CCN2C(=O)Nc2ccc(F)c(C(N)=O)c2)cc1 (racemic)	
5.18		4.2		O=C(Nc1cc(Cl)cc(Cl)c1)N1CCc2sccc2C1c1ccncc1 (racemic)	
0.275	7	4.2	20	COc1ccc(C2c3ccsc3CCN2C(=O)Nc2cccc(Cl)c2)cc1 (racemic)	
2.61	8	5.5	20	Cc1ccc(C2c3ccsc3CCN2C(=O)Nc2cc(Cl)cc(Cl)c2)cc1 (racemic)	
2.31		3.7		O=C(Nc1cc(Cl)cc(Cl)c1)N1CCc2sccc2C1c1ccc(=O)[nH]c1 (racemic)	
0.102	75	3.9	5	O=C(Nc1ccc(Oc2ccc(F)cc2)cc1)N1CCc2ncccc2[C@@H]1c1ccc(F)cc1	
> 16.5				O=C(Nc1cc(Cl)cc(Cl)c1)N1CCc2sccc2C1c1ccccn1 (racemic)	
0.207	3	3.6	21.7	COc1ccc(C2c3ccsc3CCN2C(=O)Nc2cc(OC)cc(OC)c2)cc1 (racemic)	
1.62				O=C(Nc1cc(Cl)cc(Cl)c1)N1CCc2sccc2C1c1ccccc1 (racemic)	

IC50 [1] [µM]	Fh at 1 µM [2] [%]	chromatographic logD [3]	CLhep predicted at 1 µM [4] [mL/min/kg]	Structure (SMILES)	also measured
0.378	3	5	21.7	COc1ccc(C2c3ccsc3CCN2C(=O)Nc2cc(Cl)cc(Cl)c2)cc1 (racemic)	IC50 [5]: 0.212 µM; Activity [6]: Not Active; IC50 [7]: > 30 µM; IC50 (Thyrotropin receptor): > 30 µM; inhibition [8]: inactive; IC50 [9]: > 16.5 µM
6.79				COc1ccc([C@@H]2c3ccsc3CCN2C(=O)Nc2cc(Cl)cc(Cl)c2)cc1	IC50 [5]: 4.89 µM; IC50 [7]: > 30 µM; IC50 (Thyrotropin receptor): > 30 µM; IC50 [9]: > 16.5 µM
1.85	40		13.3	O=C(Nc1cc(Cl)cc(Cl)c1)N1CCc2sccc2C1c1ccc(F)c(F)c1 (racemic)	
0.095	26	4	16.7	O=C(Nc1ccccc1)N1CCc2sccc2C1c1ccc(Cl)cc1 (racemic)	
0.486	48		11.7	O=C(Nc1cc(Cl)cc(Cl)c1)N1CCc2sccc2C1c1ccc(Cl)cc1 (racemic)	
0.332		5.4		O=C(Nc1cccc(Oc2ccccc2)c1)N1CCc2sccc2C1c1ccc(Cl)cc1 (racemic)	
0.312	83	3.2	3.33	O=C(Nc1ccc(Oc2ccc(F)cc2)nc1)N1CCc2ncccc2[C@@H]1c1ccc(F)cc1	
3.24	17	4.8	18.3	O=C(Nc1cc(Cl)cc(Cl)c1)N1CCc2sccc2C1c1ccccc1F (racemic)	
0.193				COc1cc(NC(=O)N2CCc3sccc3[C@@H]2c2ccccc2)cc(OC)c1	
0.107	18	3.9	18.3	COc1ccc(C2c3ccsc3CCN2C(=O)Nc2ccc(Cl)cc2)cc1 (racemic)	
3.65	51		11.7	O=C(Nc1cc(Cl)cc(Cl)c1)N1CCc2sccc2C1c1ccc(C(F)(F)F)cc1 (racemic)	
> 16.5				Cc1ccccc1C1c2ccsc2CCN1C(=O)Nc1cc(Cl)cc(Cl)c1 (racemic)	
3.32		3.7		COc1ccc(C2c3ccsc3CCN2C(=S)Nc2cc(OC)cc(OC)c2)cc1 (racemic)	
0.081	42	5.2	13.3	O=C(Nc1ccc(F)c(OC(F)(F)F)c1)N1CCc2sccc2C1c1ccc(Cl)cc1 (racemic)	
0.403				COc1ccc([C@H]2c3ccsc3CCN2C(=O)Nc2cc(Cl)cc(Cl)c2)cc1	IC50 [5]: 0.412 µM; IC50 [7]: > 30 µM; IC50 (Thyrotropin receptor): > 30 µM; IC50 [9]: > 16.5 µM
7.47	11	4.2	20	O=C(Nc1cc(Cl)cc(Cl)c1)N1CCc2sccc2C1c1cccnc1 (racemic)	
